Data as given in patent US20230172867A1, “A METHOD FOR TREATING CANCER WITH AN ORAL DOSAGE FORM OF AN FGFR4 INHIBITOR” (Eisai R&D Management Co., Ltd., priority 2020, published 2023).
Read-outs that look alike come from different tables or passages of the source.

Assay: Pharmacokinetic measurements of H3B-6527 capsules in patients (trial NCT02834780), plasma LC-MS/MS
Assay type: in vivo, human
Settings: human, plasma, oral; for AUC: read-out: AUC, geometric mean (CV%); for Cmax: read-out: Cmax, geometric mean (CV%)
From the text: A description of the first in human clinical trial for H3B-6527 can be found at the ClinicalTrials.gov by searching for trial identifier NCT02834780. In summary, the trial included a study population having the following characteristics: Adult patients ≥18 years old with advanced HCC or ICC; Progression after at least one prior therapy; ECOG score of 0 or 1; Well compensated liver function; FGF19-positive (dose expansion phase only); Excluded if patients have significant active infections [except hepatitis B virus (HBV) and hepatitis C virus (HCV)], gastric or esophageal varices, or previous FGF19-FGFR4 targeted therapy.
Blood samples are collected at the planned time points from each patient and centrifuged. The plasma portion of each sample is then transferred to a K2EDTA tube, which is then shipped to a bioanalytical lab for concentration measurement using LC-MS/MS. The concentration data are then analyzed using Phoenix® WinNonlin software to obtain PK parameters. The obtained PK parameters are further summarized using analytical software.
Drug Administration and Dosage for Dose Escalation: H3B-6527 was administered orally QD or BID on a 21-day cycle. […] Patients in dose escalation phase were treated regardless of FGF19 status. Response determined by RECIST 1.1/modified RECIST every 6 weeks
Further collection and collation of the PK results of the trial of Example 2 at a later point in time are reflected in the following Table 5:
The results of further analysis of the PK data of the trial of Example 2 with the actual date and time of the dose administration and PK sampling after QC, an update from the results of a preliminary analysis with the nominal (i.e. planned) dosing/PK sampling date/time presented in Example 3, are reflected in the following Table 6. In this example the number of patients from which each PK parameter was calculated is shown, rather than the total number of patients receiving a particular dose and regimen as in Table 5.

[1] = 600 mg, 600 mg QD, fed, Day 8, Table 6, actual times after QC
[2] = 700 mg, 700 mg BID, fed, Day 1, Table 6, actual times after QC
[3] = 700 mg, 700 mg BID, fed, Day 8, Table 6, actual times after QC
[4] = 1000 mg, 1000 mg QD, fasted, Day 1, Table 6, actual times after QC
[5] = 1000 mg, 1000 mg QD, fasted, Day 8, Table 6, actual times after QC
[6] = 1000 mg, 1000 mg QD, fed, Day 1, Table 6, actual times after QC
[7] = 1000 mg, 1000 mg QD, fed, Day 8, Table 6, actual times after QC
[8] = 1400 mg, 1400 mg QD, fasted, Day 1, Table 6, actual times after QC
[9] = 1400 mg, 1400 mg QD, fasted, Day 8, Table 6, actual times after QC
[10] = 1400 mg, 1400 mg QD, fed, Day 1, Table 6, actual times after QC
[11] = 1400 mg, 1400 mg QD, fed, Day 8, Table 6, actual times after QC
[12] = 2000 mg, 2000 mg QD, fed, Day 1, Table 6, actual times after QC
[13] = 2000 mg, 2000 mg QD, fed, Day 8, Table 6, actual times after QC

C=CC(=O)Nc1cc(N2CCN(CC)CC2)ccc1Nc1cc(N(C)C(=O)Nc2c(Cl)c(OC)cc(OC)c2Cl)ncn1 [H3B-6527, N-(2-((6-(3-(2,6-dichloro-3,5-dimethoxyphenyl)-1-methylureido)pyrimidin-4-yl)amino)-5-(4-ethylpiperazin-1-yl)phenyl)acrylamide]
Tmax (600 mg, 600 mg QD, fed, Day 8, Table 5, nominal times, read-out: Tmax, median (min-max)): 4.52 h
AUC [1]: 501 ng·h/mL
Cmax [1]: 99.6 ng/mL
half-life (600 mg, 600 mg QD, fed, Day 8, Table 6, actual times after QC, read-out: Half-life, geometric mean (CV%) (converted)): 5.88 h
Tmax (600 mg, 600 mg QD, fed, Day 8, Table 6, actual times after QC, read-out: Tmax, median (min-max)): 4.52 h
Cmax (700 mg, 700 mg BID, fed, Day 1, Table 5, nominal times): 163 ng/mL
half-life (700 mg, 700 mg BID, fed, Day 1, Table 5, nominal times, read-out: Half-life, geometric mean (CV%) (converted)): 2.1 h
Tmax (700 mg, 700 mg BID, fed, Day 1, Table 5, nominal times, read-out: Tmax, median (min-max)): 2.02 h
AUC [2]: 591 ng·h/mL
Cmax [2]: 163 ng/mL
half-life (700 mg, 700 mg BID, fed, Day 1, Table 6, actual times after QC, read-out: Half-life, geometric mean (CV%) (converted)): 2.13 h
Tmax (700 mg, 700 mg BID, fed, Day 1, Table 6, actual times after QC, read-out: Tmax, median (min-max)): 2.02 h
Cmax (700 mg, 700 mg BID, fed, Day 8, Table 5, nominal times): 167 ng/mL
half-life (700 mg, 700 mg BID, fed, Day 8, Table 5, nominal times, read-out: Half-life, geometric mean (CV%) (converted)): 2.2 h
Tmax (700 mg, 700 mg BID, fed, Day 8, Table 5, nominal times, read-out: Tmax, median (min-max)): 4.12 h
AUC [3]: 639 ng·h/mL
Cmax [3]: 167 ng/mL
half-life (700 mg, 700 mg BID, fed, Day 8, Table 6, actual times after QC, read-out: Half-life, geometric mean (CV%) (converted)): 2.18 h
Tmax (700 mg, 700 mg BID, fed, Day 8, Table 6, actual times after QC, read-out: Tmax, median (min-max)): 4.12 h
Cmax (1000 mg, 1000 mg QD, fasted, Day 1, Table 5, nominal times): 146 ng/mL
half-life (1000 mg, 1000 mg QD, fasted, Day 1, Table 5, nominal times, read-out: Half-life, geometric mean (CV%) (converted)): 4.5 h
Tmax (1000 mg, 1000 mg QD, fasted, Day 1, Table 5, nominal times, read-out: Tmax, median (min-max)): 2.01 h
AUC [4]: 854 ng·h/mL
Cmax [4]: 225 ng/mL
half-life (1000 mg, 1000 mg QD, fasted, Day 1, Table 6, actual times after QC, read-out: Half-life, geometric mean (CV%) (converted)): 4.48 h
Tmax (1000 mg, 1000 mg QD, fasted, Day 1, Table 6, actual times after QC, read-out: Tmax, median (min-max)): 2.02 h
Cmax (1000 mg, 1000 mg QD, fasted, Day 8, Table 5, nominal times): 197 ng/mL
half-life (1000 mg, 1000 mg QD, fasted, Day 8, Table 5, nominal times, read-out: Half-life, geometric mean (CV%) (converted)): 4.5 h
Tmax (1000 mg, 1000 mg QD, fasted, Day 8, Table 5, nominal times, read-out: Tmax, median (min-max)): 2.02 h
AUC [5]: 839 ng·h/mL
Cmax [5]: 187 ng/mL
half-life (1000 mg, 1000 mg QD, fasted, Day 8, Table 6, actual times after QC, read-out: Half-life, geometric mean (CV%) (converted)): 4.84 h
Tmax (1000 mg, 1000 mg QD, fasted, Day 8, Table 6, actual times after QC, read-out: Tmax, median (min-max)): 2 h
Cmax (1000 mg, 1000 mg QD, fed, Day 1, Table 5, nominal times): 188 ng/mL
half-life (1000 mg, 1000 mg QD, fed, Day 1, Table 5, nominal times, read-out: Half-life, geometric mean (CV%) (converted)): 4 h
Tmax (1000 mg, 1000 mg QD, fed, Day 1, Table 5, nominal times, read-out: Tmax, median (min-max)): 5.05 h
AUC [6]: 1120 ng·h/mL
Cmax [6]: 182 ng/mL
half-life (1000 mg, 1000 mg QD, fed, Day 1, Table 6, actual times after QC, read-out: Half-life, geometric mean (CV%) (converted)): 3.94 h
Tmax (1000 mg, 1000 mg QD, fed, Day 1, Table 6, actual times after QC, read-out: Tmax, median (min-max)): 6 h
Cmax (1000 mg, 1000 mg QD, fed, Day 8, Table 5, nominal times): 199 ng/mL
half-life (1000 mg, 1000 mg QD, fed, Day 8, Table 5, nominal times, read-out: Half-life, geometric mean (CV%) (converted)): 4.2 h
Tmax (1000 mg, 1000 mg QD, fed, Day 8, Table 5, nominal times, read-out: Tmax, median (min-max)): 4.08 h
AUC [7]: 796 ng·h/mL
Cmax [7]: 177 ng/mL
half-life (1000 mg, 1000 mg QD, fed, Day 8, Table 6, actual times after QC, read-out: Half-life, geometric mean (CV%) (converted)): 6.16 h
Tmax (1000 mg, 1000 mg QD, fed, Day 8, Table 6, actual times after QC, read-out: Tmax, median (min-max)): 2 h
half-life (1000 mg, following administration of 1000 mg (fasted), read-out: mean terminal half-life): 4 to 5 h
Cmax (1400 mg, 1400 mg QD, fasted, Day 1, Table 5, nominal times): 136 ng/mL
half-life (1400 mg, 1400 mg QD, fasted, Day 1, Table 5, nominal times, read-out: Half-life, geometric mean (CV%) (converted)): 5.3 h
Tmax (1400 mg, 1400 mg QD, fasted, Day 1, Table 5, nominal times, read-out: Tmax, median (min-max)): 1 h
AUC [8]: 400 ng·h/mL
Cmax [8]: 136 ng/mL
half-life (1400 mg, 1400 mg QD, fasted, Day 1, Table 6, actual times after QC, read-out: Half-life, geometric mean (CV%) (converted)): 6.13 h
Tmax (1400 mg, 1400 mg QD, fasted, Day 1, Table 6, actual times after QC, read-out: Tmax, median (min-max)): 1 h
Cmax (1400 mg, 1400 mg QD, fasted, Day 8, Table 5, nominal times): 362 ng/mL
half-life (1400 mg, 1400 mg QD, fasted, Day 8, Table 5, nominal times, read-out: Half-life, geometric mean (CV%) (converted)): 4.9 h
Tmax (1400 mg, 1400 mg QD, fasted, Day 8, Table 5, nominal times, read-out: Tmax, median (min-max)): 2.1 h
AUC [9]: 1260 ng·h/mL
Cmax [9]: 362 ng/mL
half-life (1400 mg, 1400 mg QD, fasted, Day 8, Table 6, actual times after QC, read-out: Half-life, geometric mean (CV%) (converted)): 4.56 h
Tmax (1400 mg, 1400 mg QD, fasted, Day 8, Table 6, actual times after QC, read-out: Tmax, median (min-max)): 2.1 h
Cmax (1400 mg, 1400 mg QD, fed, Day 1, Table 5, nominal times): 904 ng/mL
half-life (1400 mg, 1400 mg QD, fed, Day 1, Table 5, nominal times, read-out: Half-life, geometric mean (CV%) (converted)): 4.1 h
Tmax (1400 mg, 1400 mg QD, fed, Day 1, Table 5, nominal times, read-out: Tmax, median (min-max)): 5 h
AUC [10]: 5670 ng·h/mL
Cmax [10]: 904 ng/mL
half-life (1400 mg, 1400 mg QD, fed, Day 1, Table 6, actual times after QC, read-out: Half-life, geometric mean (CV%) (converted)): 4.13 h
Tmax (1400 mg, 1400 mg QD, fed, Day 1, Table 6, actual times after QC, read-out: Tmax, median (min-max)): 5 h
Cmax (1400 mg, 1400 mg QD, fed, Day 8, Table 5, nominal times): 827 ng/mL
half-life (1400 mg, 1400 mg QD, fed, Day 8, Table 5, nominal times, read-out: Half-life, geometric mean (CV%) (converted)): 4.4 h
Tmax (1400 mg, 1400 mg QD, fed, Day 8, Table 5, nominal times, read-out: Tmax, median (min-max)): 5.86 h
AUC [11]: 5450 ng·h/mL
Cmax [11]: 827 ng/mL
half-life (1400 mg, 1400 mg QD, fed, Day 8, Table 6, actual times after QC, read-out: Half-life, geometric mean (CV%) (converted)): 4.75 h
Tmax (1400 mg, 1400 mg QD, fed, Day 8, Table 6, actual times after QC, read-out: Tmax, median (min-max)): 5.86 h
Cmax (2000 mg, 2000 mg QD, fed, Day 1, Table 5, nominal times): 525 ng/mL
half-life (2000 mg, 2000 mg QD, fed, Day 1, Table 5, nominal times, read-out: Half-life, geometric mean (CV%) (converted)): 5.5 h
Tmax (2000 mg, 2000 mg QD, fed, Day 1, Table 5, nominal times, read-out: Tmax, median (min-max)): 2 h
AUC [12]: 2950 ng·h/mL
Cmax [12]: 540 ng/mL
half-life (2000 mg, 2000 mg QD, fed, Day 1, Table 6, actual times after QC, read-out: Half-life, geometric mean (CV%) (converted)): 4.14 h
Tmax (2000 mg, 2000 mg QD, fed, Day 1, Table 6, actual times after QC, read-out: Tmax, median (min-max)): 2.1 h
Cmax (2000 mg, 2000 mg QD, fed, Day 8, Table 5, nominal times): 451 ng/mL
half-life (2000 mg, 2000 mg QD, fed, Day 8, Table 5, nominal times, read-out: Half-life, geometric mean (CV%) (converted)): 5.7 h
Tmax (2000 mg, 2000 mg QD, fed, Day 8, Table 5, nominal times, read-out: Tmax, median (min-max)): 2.5 h
AUC [13]: 2580 ng·h/mL
Cmax [13]: 502 ng/mL
half-life (2000 mg, 2000 mg QD, fed, Day 8, Table 6, actual times after QC, read-out: Half-life, geometric mean (CV%) (converted)): 4.98 h
Tmax (2000 mg, 2000 mg QD, fed, Day 8, Table 6, actual times after QC, read-out: Tmax, median (min-max)): 4 h
Tmax (fasted, read-out: median plasma tmax): 1 to 3 h
